From ChEMBL document CHEMBL1201862, “PubChem BioAssay data set” (2004)
Activity calls are given as the source filed them.

What was measured:
[1] = molecular target: T1, Heat shock factor protein 1 (Mus musculus, UniProt P38532); test: inhibition of MG132-induced HSE-luciferase signal, confirmation, cell-based, NIH3T3, luminescence, dose retest (AID 2382); format: functional;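 further: NIH3T3 fibroblasts with HSF1-driven luciferase reporter stressed by proteasome inhibitor MG132; luminescence from HSF1-driven luciferase expression after 8 hours of MG132 stress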
T1 sequence (P38532 whole entry): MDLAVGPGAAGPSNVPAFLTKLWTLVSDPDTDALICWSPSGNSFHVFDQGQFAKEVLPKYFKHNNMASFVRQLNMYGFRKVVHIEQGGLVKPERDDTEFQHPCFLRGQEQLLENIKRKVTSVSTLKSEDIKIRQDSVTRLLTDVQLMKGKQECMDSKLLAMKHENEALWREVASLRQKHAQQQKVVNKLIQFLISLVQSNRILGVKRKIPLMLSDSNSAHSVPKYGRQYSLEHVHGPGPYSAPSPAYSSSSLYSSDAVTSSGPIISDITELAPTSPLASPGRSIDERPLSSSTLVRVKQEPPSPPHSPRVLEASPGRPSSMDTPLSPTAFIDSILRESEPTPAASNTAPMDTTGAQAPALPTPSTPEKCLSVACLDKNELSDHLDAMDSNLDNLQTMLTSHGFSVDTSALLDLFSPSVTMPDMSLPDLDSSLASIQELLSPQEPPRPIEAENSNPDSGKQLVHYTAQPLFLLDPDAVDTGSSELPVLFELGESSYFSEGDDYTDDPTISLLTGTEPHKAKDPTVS

[2] = molecular target: Arf-GAP with SH3 domain, ANK repeat and PH domain-containing protein 1 (Homo sapiens, UniProt Q9ULH1); format: functional;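 further: biochemical fluorescence polarization dose–response screen measuring inhibition of ASAP1; ASAP1 GAP domain stimulating GTP hydrolysis by truncated human ARF1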
Beta-galactosidase = Beta-galactosidase (Escherichia coli, UniProt Q8VNN2); test: Dose response counterscreen for EBI2 assay utilizing the enzyme, b-galactosidase.; format: functional
[3] = test system: Streptococcus sp. 'group A'; test: growth inhibition of control SK(-) GAS strain, dose response, counter-screen for streptokinase expression inhibitor project, luminescence, kanamycin, BacTiterGlo, confirmation (AID 1900); format: functional, organism-based
Streptokinase A = molecular target: T2, Streptokinase A (Streptococcus pyogenes serotype M1, UniProt P10520); test: S. pyogenes streptokinase expression inhibitors, potency, dose response, plasminogen activation absorbance, OD405 (AID 1914); format: functional, Streptococcus pyogenes M1 GAS;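 further: secreted streptokinase activity via plasminogen activation per viability signal from cell pellet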
T2 sequence (P10520 whole entry): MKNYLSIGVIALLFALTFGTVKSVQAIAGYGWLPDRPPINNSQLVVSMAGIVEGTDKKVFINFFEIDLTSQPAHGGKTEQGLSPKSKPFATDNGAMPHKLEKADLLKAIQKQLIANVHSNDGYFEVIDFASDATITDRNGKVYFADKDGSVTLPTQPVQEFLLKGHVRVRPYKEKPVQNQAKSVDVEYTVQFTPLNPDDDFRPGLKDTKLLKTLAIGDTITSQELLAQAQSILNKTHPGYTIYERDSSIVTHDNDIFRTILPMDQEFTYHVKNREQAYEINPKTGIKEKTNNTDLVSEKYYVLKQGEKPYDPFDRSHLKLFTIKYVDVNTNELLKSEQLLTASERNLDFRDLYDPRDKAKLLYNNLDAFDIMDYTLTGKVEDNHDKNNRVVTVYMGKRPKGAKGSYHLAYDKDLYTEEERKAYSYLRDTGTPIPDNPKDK

Streptococcus = test: Group A Streptococcus viability loss, dose response, counter-screen for streptokinase expression inhibitor project, luminescence, BacTiterGlo (AID 1915); format: functional, organism-based;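 further: potency for reduction of bacterial viability or growth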
[4] = molecular target: T3, Carboxy-terminal domain RNA polymerase II polypeptide A small phosphatase 1 (Homo sapiens, UniProt Q9GZU7); test: inhibitors of CTDSP1, concentration-response testing, biochemical assay, absorbance-based, actives from ultra-high-throughput screening (AID 540297); format: functional
T3 sequence (Q9GZU7 whole entry): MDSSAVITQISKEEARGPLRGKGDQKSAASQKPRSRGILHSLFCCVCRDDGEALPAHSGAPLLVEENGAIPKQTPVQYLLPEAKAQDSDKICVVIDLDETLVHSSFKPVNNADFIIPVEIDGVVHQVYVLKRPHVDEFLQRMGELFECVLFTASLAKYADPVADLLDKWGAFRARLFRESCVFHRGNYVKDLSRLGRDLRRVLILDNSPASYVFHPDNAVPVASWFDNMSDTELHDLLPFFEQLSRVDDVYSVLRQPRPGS

[5] = molecular target: DNA (cytosine-5)-methyltransferase 1 (Homo sapiens, UniProt P26358); test: DNMT1 methyltransferase inhibitors, confirmation, biochemical, fluorescent molecular beacon (AID 602386); format: functional
Vero [6] = test: Vero cell toxicity, dose response, cytotoxicity control, plate reader, cherry-pick samples (AID 687020); format: functional, cell-based; conditions: Chlorocebus sabaeus
[7] = molecular target: T4, Low molecular weight phosphotyrosine protein phosphatase (Homo sapiens, UniProt P24666); format: functional; conditions: read-out: IC50_Mean
T4 sequence (P24666 whole entry): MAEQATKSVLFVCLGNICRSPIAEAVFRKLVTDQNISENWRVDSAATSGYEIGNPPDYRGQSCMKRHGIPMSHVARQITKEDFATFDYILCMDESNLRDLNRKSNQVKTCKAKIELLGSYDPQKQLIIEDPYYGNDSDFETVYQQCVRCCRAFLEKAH

[8] = molecular target: T4, Low molecular weight phosphotyrosine protein phosphatase; format: functional; conditions: read-out: IC50_Mean; remark: listed apart in the source
Large T antigen = Large T antigen (Simian virus 40, UniProt P03070); format: functional, Betapolyomavirus macacae;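 further: Confirmatory-stage PubChem screen for compounds that inhibit SV40 T antigen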
Hexokinase HKDC1 = molecular target: T5, Hexokinase HKDC1 (Homo sapiens, UniProt Q2TB90); test: HKDC1 hexokinase inhibitors, dose response, biochemical, W721R variant (AID 504729); format: functional
T5 sequence (Q2TB90 whole entry): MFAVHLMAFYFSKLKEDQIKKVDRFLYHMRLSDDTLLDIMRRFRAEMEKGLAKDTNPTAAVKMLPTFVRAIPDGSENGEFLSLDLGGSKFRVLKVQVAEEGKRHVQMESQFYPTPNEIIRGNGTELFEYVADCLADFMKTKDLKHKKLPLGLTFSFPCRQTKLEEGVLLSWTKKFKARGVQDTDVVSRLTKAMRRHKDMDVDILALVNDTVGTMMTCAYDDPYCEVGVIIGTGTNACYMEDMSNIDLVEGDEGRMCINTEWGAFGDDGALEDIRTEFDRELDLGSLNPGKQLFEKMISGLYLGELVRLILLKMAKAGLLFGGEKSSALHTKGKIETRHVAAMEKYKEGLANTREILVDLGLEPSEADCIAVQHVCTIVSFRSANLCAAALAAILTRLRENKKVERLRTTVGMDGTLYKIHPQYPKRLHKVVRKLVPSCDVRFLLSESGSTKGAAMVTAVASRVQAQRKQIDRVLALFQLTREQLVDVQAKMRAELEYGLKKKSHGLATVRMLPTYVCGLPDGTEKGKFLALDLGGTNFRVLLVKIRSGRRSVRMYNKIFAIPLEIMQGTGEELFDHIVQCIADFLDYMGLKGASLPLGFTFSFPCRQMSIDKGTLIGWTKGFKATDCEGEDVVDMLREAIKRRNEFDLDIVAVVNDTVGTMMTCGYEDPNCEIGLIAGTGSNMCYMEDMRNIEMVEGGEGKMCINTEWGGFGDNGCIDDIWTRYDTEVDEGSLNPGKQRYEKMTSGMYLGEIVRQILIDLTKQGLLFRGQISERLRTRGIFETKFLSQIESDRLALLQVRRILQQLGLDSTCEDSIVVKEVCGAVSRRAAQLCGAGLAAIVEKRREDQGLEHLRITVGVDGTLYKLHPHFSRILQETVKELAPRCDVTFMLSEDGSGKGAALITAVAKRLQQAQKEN

Cysteine protease ATG4B = molecular target: T6, Cysteine protease ATG4B (Homo sapiens, UniProt Q9Y4P1); format: functional;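 further: Fluorescence-based dose-response confirmation assay measuring inhibition of ATG4B activity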
T6 sequence (Q9Y4P1 whole entry): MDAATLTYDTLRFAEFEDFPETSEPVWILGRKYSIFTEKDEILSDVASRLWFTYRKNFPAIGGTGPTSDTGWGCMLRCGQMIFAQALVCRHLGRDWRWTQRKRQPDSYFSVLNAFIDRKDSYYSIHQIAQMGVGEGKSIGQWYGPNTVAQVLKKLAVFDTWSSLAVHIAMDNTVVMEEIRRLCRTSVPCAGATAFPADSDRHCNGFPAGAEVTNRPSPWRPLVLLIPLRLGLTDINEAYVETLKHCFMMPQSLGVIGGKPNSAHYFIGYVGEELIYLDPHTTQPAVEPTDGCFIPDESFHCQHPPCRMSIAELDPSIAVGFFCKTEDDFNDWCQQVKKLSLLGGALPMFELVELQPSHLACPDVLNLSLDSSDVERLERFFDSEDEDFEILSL

Phospholipase A2 = Phospholipase A2 (Homo sapiens, UniProt P04054); format: functional;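 further: confirmatory dose-response counterscreen on phospholipase A2, testing hits that came from an ultra-high-throughput screen for ATG4B inhibitors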
Interleukin-8 [9] = molecular target: T7, Interleukin-8 (Homo sapiens, UniProt P10145); test: Dose Response confirmation of uHTS small molecule hits for cystic fibrosis induced NFkb Inhibitors in a TNFa-induced IL8 counterscreen.; format: functional; conditions: read-out: IC50_Mean
T7 sequence (P10145 whole entry): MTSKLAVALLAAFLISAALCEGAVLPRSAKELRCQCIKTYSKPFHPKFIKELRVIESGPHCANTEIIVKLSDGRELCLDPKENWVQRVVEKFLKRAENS

Interleukin-8 [10] = molecular target: T7, Interleukin-8; test: Dose Response confirmation of uHTS small molecule hits for cystic fibrosis induced NFkb Inhibitors in a PAF-induced IL8 counterscreen.; format: functional; conditions: read-out: IC50_Mean
[11] = molecular target: Delta-type opioid receptor (Homo sapiens, UniProt P41143); test: Counterscreen for agonists of heterodimerization of the mu 1 (OPRM1) and delta 1 (OPRD1) opioid receptors: Luminescence-based cell-based high throughput dose response assay to identify agonists of OPRD1 homodimerization. [Related pubchem assays (depositor defined):AID504326, AID504355, AID504692, AID504904, AID504905]; format: functional
Mu-type opioid receptor = Mu-type opioid receptor (Homo sapiens, UniProt P35372); test: Counterscreen for agonists of heterodimerization of the mu 1 (OPRM1) and delta 1 (OPRD1) opioid receptors: Luminescence-based cell-based high throughput dose response assay to identify agonists of OPRM1 homodimerization.; format: functional;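 further: U2OS cells expressing OPRM1 and beta-arrestin as split beta-galactosidase partners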
[12] = molecular target: 5-hydroxytryptamine receptor 5A (Homo sapiens, UniProt P47898); test: Counterscreen for agonists of OPRM1-OPRD1 heterodimerization: luminescence-based cell-based high throughput dose response assay to identify agonists of 5-hydroxytryptamine (serotonin) 5A receptor (HTR5A). [Related pubchem assays (depositor defined):AID504326, AID504355, AID504692, AID504904, AID504905]; format: functional
[13] = Shn3 3'UTR reporter inhibitors, dose response, cell-based, Clone20 osteoblasts, firefly luciferase, cherry-picked (AID 624132); format: functional;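 further: firefly luciferase luminescence from reporter carrying the Shn3 3'UTR in osteoblasts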
[14] = HepG2 cell cytotoxicity, dose response, cytotoxicity control for Shn3 inhibitor project, CellTiter-Glo, cherry-picked (AID 624134); format: functional, cell-based
[15] = control 3'UTR Renilla luciferase suppression, dose response, counter-screen for Shn3 inhibitor project, cell-based, Clone20-Shn3RL, cherry-picked (AID 624133); format: functional
[16] = molecular target: SWI/SNF-related matrix-associated actin-dependent regulator of chromatin subfamily A member 2 (Homo sapiens, UniProt P51531); test: Luminescence-based cell-based high throughput dose response assay to identify activators of the function of SWI/SNF related, matrix associated, actin dependent regulator of chromatin, subfamily a, member 2 (SMARCA2, BRM).; format: functional
[17] = Counterscreen for activators of the function of SWI/SNF related, matrix associated, actin dependent regulator of chromatin, subfamily a, member 2 (SMARCA2, BRM): Luminescence-based cell-based high throughput dose response assay to identify non-selective compounds using the VP16 reporter assay.; format: functional
HEK293 = test: inhibitors of LMP1-driven NF-kB reporter, dose response, cell-based, HEK293, luciferase, cherry-pick (AID 588343); format: functional; conditions: Homo sapiens
Vero [18] = test: Vero cell cytotoxicity, cytotoxicity control for flavivirus capping enzyme inhibitors (AID 588742); format: functional; conditions: Chlorocebus sabaeus
[19] = Fluorescence-based cell-based high throughput dose response assay for inhibitors of the interaction of nucleotide-binding oligomerization domain containing 2 (NOD2) and the receptor-interacting serine-threonine kinase 2 (RIPK2).; format: functional; conditions: Homo sapiens
Paired box protein Pax-8 = Paired box protein Pax-8 (Homo sapiens, UniProt Q06710); test: inhibitors of PAX8-driven TPO luciferase reporter, dose response, RMG-I cells, cherry-pick (AID 687027); format: functional, cell-based;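 further: luciferase reporter driven by Pax8 target thyroperoxidase promoter measured by SteadyGlo luminescence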
Chain of Paired box protein Pax-8 (Q06710 whole entry): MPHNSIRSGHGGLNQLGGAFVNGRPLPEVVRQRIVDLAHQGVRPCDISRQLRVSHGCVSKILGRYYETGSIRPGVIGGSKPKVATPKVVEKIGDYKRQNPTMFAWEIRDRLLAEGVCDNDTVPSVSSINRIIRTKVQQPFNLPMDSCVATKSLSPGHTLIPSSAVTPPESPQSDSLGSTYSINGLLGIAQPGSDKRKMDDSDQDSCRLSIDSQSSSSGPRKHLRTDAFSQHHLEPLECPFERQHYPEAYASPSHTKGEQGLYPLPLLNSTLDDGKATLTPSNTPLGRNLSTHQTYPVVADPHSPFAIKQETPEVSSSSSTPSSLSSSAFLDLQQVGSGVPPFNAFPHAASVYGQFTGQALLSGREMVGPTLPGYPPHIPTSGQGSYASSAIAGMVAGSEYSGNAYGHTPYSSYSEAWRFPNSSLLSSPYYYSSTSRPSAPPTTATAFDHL

Chain of DNA (cytosine-5)-methyltransferase 1 (P26358 whole entry): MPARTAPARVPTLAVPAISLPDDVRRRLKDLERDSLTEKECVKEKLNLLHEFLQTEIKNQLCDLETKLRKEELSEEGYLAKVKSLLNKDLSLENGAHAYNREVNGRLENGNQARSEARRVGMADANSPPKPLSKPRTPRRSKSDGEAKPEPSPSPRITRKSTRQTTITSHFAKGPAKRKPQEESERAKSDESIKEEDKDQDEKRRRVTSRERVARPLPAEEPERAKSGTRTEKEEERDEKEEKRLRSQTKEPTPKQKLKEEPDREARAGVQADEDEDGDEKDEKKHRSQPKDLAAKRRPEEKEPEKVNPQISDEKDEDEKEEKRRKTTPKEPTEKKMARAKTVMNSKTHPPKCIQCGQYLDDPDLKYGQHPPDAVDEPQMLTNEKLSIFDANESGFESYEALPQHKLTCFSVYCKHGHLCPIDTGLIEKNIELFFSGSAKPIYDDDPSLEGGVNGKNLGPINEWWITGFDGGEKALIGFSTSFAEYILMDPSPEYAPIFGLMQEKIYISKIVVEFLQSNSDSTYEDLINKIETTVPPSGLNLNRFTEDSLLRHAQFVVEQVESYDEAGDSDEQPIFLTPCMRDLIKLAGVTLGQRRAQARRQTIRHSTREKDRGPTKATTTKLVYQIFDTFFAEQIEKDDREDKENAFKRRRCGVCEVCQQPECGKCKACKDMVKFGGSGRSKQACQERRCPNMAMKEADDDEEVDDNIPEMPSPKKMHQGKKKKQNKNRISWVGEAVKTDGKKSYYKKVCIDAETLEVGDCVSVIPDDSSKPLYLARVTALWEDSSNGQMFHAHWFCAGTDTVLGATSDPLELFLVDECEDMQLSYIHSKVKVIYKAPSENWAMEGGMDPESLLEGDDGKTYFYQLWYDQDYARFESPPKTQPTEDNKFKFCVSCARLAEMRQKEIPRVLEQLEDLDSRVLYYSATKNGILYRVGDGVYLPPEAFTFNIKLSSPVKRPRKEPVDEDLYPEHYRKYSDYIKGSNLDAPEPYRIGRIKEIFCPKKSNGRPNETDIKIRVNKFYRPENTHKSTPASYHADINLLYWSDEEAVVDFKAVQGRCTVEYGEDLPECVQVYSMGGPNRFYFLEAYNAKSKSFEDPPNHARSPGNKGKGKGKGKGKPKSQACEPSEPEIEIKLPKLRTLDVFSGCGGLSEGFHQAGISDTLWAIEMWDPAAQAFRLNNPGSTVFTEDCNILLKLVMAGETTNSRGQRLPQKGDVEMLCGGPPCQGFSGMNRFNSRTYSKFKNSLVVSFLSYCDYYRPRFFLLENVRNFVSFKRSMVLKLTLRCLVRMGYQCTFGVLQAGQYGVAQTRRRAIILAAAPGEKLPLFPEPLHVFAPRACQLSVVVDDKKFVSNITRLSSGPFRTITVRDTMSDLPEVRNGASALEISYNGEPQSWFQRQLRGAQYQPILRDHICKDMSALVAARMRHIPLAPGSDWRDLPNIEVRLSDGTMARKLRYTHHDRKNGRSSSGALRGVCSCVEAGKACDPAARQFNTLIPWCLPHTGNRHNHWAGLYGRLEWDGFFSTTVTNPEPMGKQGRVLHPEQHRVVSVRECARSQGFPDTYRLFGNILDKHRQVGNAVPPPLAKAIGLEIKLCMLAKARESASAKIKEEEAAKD
Chain of Beta-galactosidase (Q8VNN2 whole entry): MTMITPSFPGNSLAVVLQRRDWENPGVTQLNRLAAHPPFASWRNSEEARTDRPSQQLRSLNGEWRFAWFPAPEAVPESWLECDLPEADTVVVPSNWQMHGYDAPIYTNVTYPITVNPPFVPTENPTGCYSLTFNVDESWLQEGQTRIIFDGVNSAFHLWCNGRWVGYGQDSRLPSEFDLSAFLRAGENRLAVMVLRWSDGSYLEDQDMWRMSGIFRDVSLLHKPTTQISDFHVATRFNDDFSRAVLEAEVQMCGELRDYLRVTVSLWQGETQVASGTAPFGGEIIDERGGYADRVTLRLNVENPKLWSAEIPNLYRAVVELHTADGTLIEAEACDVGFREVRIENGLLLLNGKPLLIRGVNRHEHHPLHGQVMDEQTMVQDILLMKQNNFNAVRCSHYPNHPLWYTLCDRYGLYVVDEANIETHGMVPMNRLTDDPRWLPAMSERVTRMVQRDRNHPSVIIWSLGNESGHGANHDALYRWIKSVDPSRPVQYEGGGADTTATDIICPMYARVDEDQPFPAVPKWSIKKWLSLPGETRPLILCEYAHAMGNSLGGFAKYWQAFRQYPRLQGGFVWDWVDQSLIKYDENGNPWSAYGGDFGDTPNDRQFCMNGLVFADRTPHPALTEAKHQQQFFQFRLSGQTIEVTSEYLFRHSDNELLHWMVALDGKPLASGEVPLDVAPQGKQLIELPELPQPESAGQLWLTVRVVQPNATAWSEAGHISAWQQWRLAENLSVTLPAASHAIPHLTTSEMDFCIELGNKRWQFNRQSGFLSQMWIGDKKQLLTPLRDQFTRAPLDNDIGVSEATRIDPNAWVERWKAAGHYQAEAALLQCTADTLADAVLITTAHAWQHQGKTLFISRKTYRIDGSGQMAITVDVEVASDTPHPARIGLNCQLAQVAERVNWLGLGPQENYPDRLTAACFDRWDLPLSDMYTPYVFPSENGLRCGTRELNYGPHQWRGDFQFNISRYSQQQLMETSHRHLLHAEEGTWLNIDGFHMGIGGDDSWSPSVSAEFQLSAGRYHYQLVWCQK
Chain of SWI/SNF-related matrix-associated actin-dependent regulator of chromatin subfamily A member 2 (P51531 whole entry): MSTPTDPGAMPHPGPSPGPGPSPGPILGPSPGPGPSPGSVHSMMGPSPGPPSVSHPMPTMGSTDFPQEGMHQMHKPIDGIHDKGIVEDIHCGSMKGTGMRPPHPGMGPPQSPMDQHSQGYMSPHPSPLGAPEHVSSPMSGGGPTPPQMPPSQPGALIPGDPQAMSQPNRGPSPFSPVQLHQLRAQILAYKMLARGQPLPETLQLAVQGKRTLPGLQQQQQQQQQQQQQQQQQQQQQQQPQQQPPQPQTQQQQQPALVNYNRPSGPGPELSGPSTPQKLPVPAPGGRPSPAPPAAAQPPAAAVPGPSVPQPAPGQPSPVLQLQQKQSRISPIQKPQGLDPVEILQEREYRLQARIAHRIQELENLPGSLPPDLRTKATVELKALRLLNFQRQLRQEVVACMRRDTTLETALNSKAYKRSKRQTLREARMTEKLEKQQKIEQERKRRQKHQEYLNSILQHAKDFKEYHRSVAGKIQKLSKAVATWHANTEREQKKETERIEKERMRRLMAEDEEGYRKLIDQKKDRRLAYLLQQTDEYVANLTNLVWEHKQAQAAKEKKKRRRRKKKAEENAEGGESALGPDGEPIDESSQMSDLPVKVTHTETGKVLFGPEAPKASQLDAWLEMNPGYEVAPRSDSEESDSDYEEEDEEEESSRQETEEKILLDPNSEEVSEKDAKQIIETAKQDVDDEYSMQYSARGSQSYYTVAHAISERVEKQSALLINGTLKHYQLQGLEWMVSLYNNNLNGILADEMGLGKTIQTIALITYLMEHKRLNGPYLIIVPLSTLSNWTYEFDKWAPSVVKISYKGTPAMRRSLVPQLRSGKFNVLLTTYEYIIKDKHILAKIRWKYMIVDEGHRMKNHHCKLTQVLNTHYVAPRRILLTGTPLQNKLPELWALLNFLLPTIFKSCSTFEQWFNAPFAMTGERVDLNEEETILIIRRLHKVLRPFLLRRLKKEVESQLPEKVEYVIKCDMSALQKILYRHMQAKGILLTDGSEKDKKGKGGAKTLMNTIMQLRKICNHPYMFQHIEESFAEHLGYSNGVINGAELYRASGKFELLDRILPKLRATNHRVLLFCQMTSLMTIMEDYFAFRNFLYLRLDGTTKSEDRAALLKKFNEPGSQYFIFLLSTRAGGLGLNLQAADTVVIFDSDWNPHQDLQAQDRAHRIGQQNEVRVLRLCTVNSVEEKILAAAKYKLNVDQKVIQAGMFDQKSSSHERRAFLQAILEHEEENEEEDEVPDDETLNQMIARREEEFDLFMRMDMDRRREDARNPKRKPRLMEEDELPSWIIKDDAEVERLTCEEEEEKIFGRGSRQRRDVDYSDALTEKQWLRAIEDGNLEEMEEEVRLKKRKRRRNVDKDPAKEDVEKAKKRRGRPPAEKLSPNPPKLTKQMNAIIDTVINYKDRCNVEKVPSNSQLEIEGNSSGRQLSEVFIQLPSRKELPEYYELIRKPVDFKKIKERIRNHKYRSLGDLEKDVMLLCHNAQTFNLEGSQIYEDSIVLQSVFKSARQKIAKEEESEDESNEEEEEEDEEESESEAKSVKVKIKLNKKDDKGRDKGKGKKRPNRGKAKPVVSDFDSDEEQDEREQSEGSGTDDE
Chain of Mu-type opioid receptor (P35372 whole entry): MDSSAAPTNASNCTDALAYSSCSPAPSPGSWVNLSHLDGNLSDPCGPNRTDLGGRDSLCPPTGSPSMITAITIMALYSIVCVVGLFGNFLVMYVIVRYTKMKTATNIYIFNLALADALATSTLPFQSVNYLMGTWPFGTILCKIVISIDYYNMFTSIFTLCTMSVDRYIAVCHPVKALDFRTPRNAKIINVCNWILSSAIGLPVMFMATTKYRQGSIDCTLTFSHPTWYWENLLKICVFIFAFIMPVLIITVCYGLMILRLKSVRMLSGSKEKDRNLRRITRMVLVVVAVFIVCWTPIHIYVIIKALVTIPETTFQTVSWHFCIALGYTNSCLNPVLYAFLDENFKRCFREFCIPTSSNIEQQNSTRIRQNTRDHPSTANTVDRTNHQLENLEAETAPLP

CCCCN(Cc1ccco1)C(=O)Cn1ncc2c(=O)oc3ccc(C)cc3c21
EC50 [1]: > 195 µM (not active) | IC50 [2]: 53.2 µM (inactive) | IC50 (Beta-galactosidase): > 80 µM (inactive)

CC(=O)OCC1=C(C(=O)O)N2C(=O)C(NC(=O)c3ccc(COc4cccc(Cl)c4Cl)o3)C2SC1 (centres undefined)
EC50 [3]: 5.04 µM (active) | EC50 (Streptokinase A): 12.6 µM (active) | EC50 (Streptococcus): 8.94 µM (active) | IC50 [4]: 5.07 µM (active) | IC50 [5]: 8.67 µM (active)

CCCn1c(NCc2ccc(N(C)C)cc2)nc2ccccc21
AC50 (Vero [6]): 36.6 µM (active)

O=C(/C=C\Nc1ccc2c(c1)OCO2)c1ccc(Cl)s1
IC50 [7]: > 80 µM (inactive) | IC50 [8]: 19.9 µM (active)

O=C(c1cc2cc(Br)ccc2[nH]1)N1CCC2(CC1)OCCO2
IC50 (Beta-galactosidase): > 80 µM (inactive)

CCCCc1cc(=O)oc2cc(C)cc(OCC(=O)N3CCC(C(N)=O)CC3)c12
AC50 (Vero [6]): 37.5 µM (active)

Cc1cc(/C=C2\C(=O)NC(=O)N(c3ccc(Cl)cc3)C2=O)c(C)n1-c1sc2c(c1C#N)CCCC2
IC50 (Large T antigen): 17.2 µM (active) | IC50 (Hexokinase HKDC1): 10.8 µM (active) | IC50 (Cysteine protease ATG4B): 14.7 µM (active) | IC50 (Phospholipase A2): 14.1 µM (active) | IC50 [5]: 9.52 µM (active)

O=C(c1ccccc1)C1OC1C(=O)c1ccccc1 (centres undefined)
IC50 (Interleukin-8 [9]): 6 µM (active) | IC50 (Interleukin-8 [10]): 2.84 µM (active)

CN1CCN(Cc2nc3ccccc3c(=O)n2Cc2nc(-c3ccc4ccccc4c3)cs2)CC1
EC50 [11]: > 92.5 µM (inactive) | EC50 (Mu-type opioid receptor): > 92.5 µM (inactive) | EC50 [12]: > 92.5 µM (inactive) | AC50 [13]: 11 µM (active) | AC50 [14]: 8.34 µM (active) | AC50 [15]: 11.7 µM (active) | EC50 [16]: > 91.2 µM (inactive) | EC50 [17]: > 91.2 µM (inactive)

CC(=O)OC1CCC2(C)C(CCC3C4CC=C(C(C)=O)C4(C)OC(=O)CC32)C1 (centres undefined)
AC50 (HEK293): 1.65 µM (active) | CC50 (Vero [18]): 34.9 µM (active) | IC50 [19]: 5.12 µM (active) | IC50 (Interleukin-8 [9]): 1.12 µM (active) | IC50 (Interleukin-8 [10]): 0.338 µM (active) | AC50 (Paired box protein Pax-8): 6.49 µM (active)
